Experimental data published in patent publication US6680003B2, “Chiral doping agents with variable spiral pitch induction and application thereof to a reflective color display” (Asulab S.A., priority 2000, dated 2004).

Assay: Solubility in a nematic

## 2-[4′-(6-Acryloyloxyhexyloxy)-2′.5′-methylazophenyl-4-carbonyloy]—5-[4-(6-Acryloyloxyhexyloxy)benzoyl]-1.4:3.6-D-glucitol [Compound 209sf]
  Solubility s: 4.0% < s % mass
